The record followed here is patent US10610520B2, “Heterocyclic compound” (Takeda Pharmaceutical Company Limited, priority 2016, dated 2020).

In this assay the target is T1, His-hMAGL (recombinant polyhistidine tagged human MAGL protein) (Homo sapiens, UniProt Q99685).
T1 construct: made in house; host or cells: E. coli BL21(DE3)
T1 sequence (Q99685 1-303): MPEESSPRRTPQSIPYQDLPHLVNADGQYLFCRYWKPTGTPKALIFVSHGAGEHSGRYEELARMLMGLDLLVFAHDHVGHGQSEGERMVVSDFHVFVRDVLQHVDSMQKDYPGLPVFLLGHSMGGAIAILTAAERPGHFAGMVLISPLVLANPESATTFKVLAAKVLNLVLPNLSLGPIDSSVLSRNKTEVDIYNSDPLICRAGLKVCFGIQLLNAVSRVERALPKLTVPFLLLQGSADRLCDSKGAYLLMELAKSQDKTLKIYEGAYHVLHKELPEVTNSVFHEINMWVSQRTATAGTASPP
Briefly: Measurement of MAGL inhibitory activity (arachidonic acid production from 2-arachidonylglycerol, RapidFire-mass spectrometry). It counts as biochemical. The following applies: MAGL inhibitory rate, test compound 10 μM, 60 min preincubation, 2-arachidonylglycerol substrate. The gist of the method:
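Arachidonic acid formed was quantified by online solid-phase extraction and triple-quadrupole MS in negative SRM mode against a d8 internal standard. Reaction: recombinant His-hMAGL (7.5 ng/mL, pH 7.5 Tris buffer with Triton X-100 and BSA) plus 2-AG (5 μL of 150 μM stock) for 10 min at room temperature, quenched with 2% formic acid. Percent inhibition corrected for enzyme-free background.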

For `O=C1CCC2(CN(C(=O)c3ccc(-c4cccc5c4OCC5)cc3)C2)N1` [Example 94, 2-(4-(2,3-dihydro-1-benzofuran-7-yl)benzoyl)-2,5-diazaspiro[3.4]octan-6-one], the inhibition – broadly, the change of the read-out against control, counted positive when it falls – at 10 µM amounted to 93%.

On to `O=C1CCC2(CN(C(=O)c3ccc(-c4ccc5c(c4)CCO5)cc3)C2)N1` [Example 95, 2-(4-(2,3-dihydro-1-benzofuran-5-yl)benzoyl)-2,5-diazaspiro[3.4]octan-6-one], for which the inhibition at 10 µM turned out to be 94%.

`O=C1CCC2(CN(C(=O)N3CCC(Cc4ccccc4F)CC3)C2)N1` [Example 96, 2-((4-(2-fluorobenzyl)piperidin-1-yl)carbonyl)-2,5-diazaspiro[3.4]octan-6-one]: the inhibition at 10 µM was 101%.

With `O=C1CCC2(CN(C(=O)N3CCC(F)(Cc4ccc(F)cc4)CC3)C2)N1` [Example 97, 2-((4-fluoro-4-(4-fluorobenzyl)piperidin-1-yl)carbonyl)-2,5-diazaspiro[3.4]octan-6-one], the inhibition at 10 µM was determined as 96%.

In the case of `O=C1CCC2(CN(C(=O)N3CCC(Cc4ccc(F)cc4F)CC3)C2)N1` [Example 98, 2-((4-(2,4-difluorobenzyl)piperidin-1-yl)carbonyl)-2,5-diazaspiro[3.4]octan-6-one], the inhibition at 10 µM was determined as 101%.

Take `O=C1CCC2(CN(C(=O)N3CCC(Cc4ccc(Cl)cc4)CC3)C2)N1` [Example 99, 2-((4-(4-chlorobenzyl)piperidin-1-yl)carbonyl)-2,5-diazaspiro[3.4]octan-6-one]: the inhibition at 10 µM came to 100%.

With `O=C1CCC2(CN(C(=O)N3CCC(Cc4cccc(Cl)c4)CC3)C2)N1` [Example 100, 2-((4-(3-chlorobenzy)lpiperidin-1-yl)carbonyl)-2,5-diazaspiro[3.4]octan-6-one], the inhibition at 10 µM was 102%.

With `O=C1CCC2(CN(C(=O)N3CCC(Cc4ccccc4Cl)CC3)C2)N1` [Example 101, 2-((4-(2-chlorobenzyl)piperidin-1-yl)carbonyl)-2,5-diazaspiro[3.4]octan-6-one], the inhibition at 10 µM was determined as 99%.

On to `O=C1CCC2(CN(C(=O)N3CCC(Cc4ccc(Cl)cc4Cl)CC3)C2)N1` [Example 102, 2-((4-(2,4-dichlorobenzyl)piperidin-1-yl)carbonyl)-2,5-diazaspiro[3.4]octan-6-one], for which the inhibition at 10 µM was 102%.

On to `O=C1CCC2(CN(C(=O)N3CCC(Cc4ccc(Cl)c(Cl)c4)CC3)C2)N1` [Example 103, 2-((4-(3,4-dichlorobenzyl)piperidin-1-yl)carbonyl)-2,5-diazaspiro[3.4]octan-6-one], for which the inhibition at 10 µM amounted to 103%.

As for `Cc1cc(Cl)ccc1CC1CCN(C(=O)N2CC3(CCC(=O)N3)C2)CC1` [Example 104, 2-((4-(4-chloro-2-methylbenzyl)piperidin-1-yl)carbonyl)-2,5-diazaspiro[3.4]octan-6-one], the inhibition at 10 µM was 98%.

Consider `O=C1CCC2(CN(C(=O)N3CCC(Cc4ccc(Cl)cc4C(F)(F)F)CC3)C2)N1` [Example 105, 2-((4-(4-chloro-2-(trifluoromethyl)benzyl)piperidin-1-yl)carbonyl)-2,5-diazaspiro[3.4]octan-6-one], for which the inhibition at 10 µM turned out to be 102%.

Take `O=C1CCC2(CN(C(=O)N3CCC(Cc4ccc(C(F)(F)F)cc4)CC3)C2)N1` [Example 106, 2-((4-(4-(trifluoromethyl)benzyl)piperidin-1-yl)carbonyl)-2,5-diazaspiro[3.4]octan-6-one]: the inhibition at 10 µM was 101%.

For the compound `O=C1CCC2(CN(C(=O)N3CCC(Cc4ccc(C(F)(F)F)cc4Cl)CC3)C2)N1` [Example 107, 2-((4-(2-chloro-4-(trifluoromethyl)benzyl)piperidin-1-yl)carbonyl)-2,5-diazaspiro[3.4]octan-6-one], the inhibition at 10 µM was found to be 98%.

`O=C1CCC2(CN(C(=O)N3CCC(Cc4cc(C(F)(F)F)cc(C(F)(F)F)c4)CC3)C2)N1` [Example 108, 2-((4-(3,5-bis(trifluoromethyl)benzyl)piperidin-1-yl)carbonyl)-2,5-diazaspiro[3.4]octan-6-one]: the inhibition at 10 µM stood at 104%.

Take `COC(=O)c1ccc(-c2ccc(CC3CCN(C(=O)N4CC5(CCC(=O)N5)C4)CC3)cc2)cc1` [Example 109, methyl 4′-((1-((6-oxo-2,5-diazaspiro[3.4]oct-2-yl)carbonyl)piperidin-4-yl)methyl)biphenyl-4-carboxylate]: the inhibition at 10 µM amounted to 98%.

Turning to `COC(=O)c1cccc(-c2ccc(CC3CCN(C(=O)N4CC5(CCC(=O)N5)C4)CC3)cc2)c1` [Example 110, methyl 4′-((1-((6-oxo-2,5-diazaspiro[3.4]oct-2-yl)carbonyl)piperidin-4-yl)methyl)biphenyl-3-carboxylate], the inhibition at 10 µM was 101%.

Regarding `O=C1CCC2(CN(C(=O)N3CCC(Cc4ccc(N5CCCCC5)cc4)CC3)C2)N1` [Example 111, 2-((4-(4-(piperidin-1-yl)benzyl)piperidin-1-yl)carbonyl)-2,5-diazaspiro[3.4]octan-6-one], the inhibition at 10 µM was 101%.

In the case of `O=C1CCC2(CN(C(=O)N3CCC(C(c4ccccc4)c4ccccc4)CC3)C2)N1` [Example 112, 2-((4-(diphenylmethyl)piperidin-1-yl)carbonyl)-2,5-diazaspiro[3.4]octan-6-one], the inhibition at 10 µM stood at 101%.

Take `O=C1CCC2(CN(C(=O)N3CCN(C(c4ccc(F)cc4)c4ccc(F)cc4)CC3)C2)N1` [Example 113, 2-((4-(bis(4-fluorophenyl)methyl)piperazin-1-yl)carbonyl)-2,5-diazaspiro[3.4]octan-6-one]: the inhibition at 10 µM came to 101%.

Turning to `O=C1CCC2(CN(C(=O)c3ccc(-c4ccccc4)cc3Cl)C2)N1` [Example 117, 2-((3-chlorobiphenyl-4-yl)carbonyl)-2,5-diazaspiro[3.4]octan-6-one], the inhibition at 10 µM was found to be 81%.

For the compound `Cc1cc(C(=O)N2CC3(CCC(=O)N3)C2)ccc1-c1ccccc1` [Example 118, 2-((2-methylbiphenyl-4-yl)carbonyl)-2,5-diazaspiro[3.4]octan-6-one], the inhibition at 10 µM is 87%.

As to `O=C1CCC2(CN(C(=O)c3ccc(-c4ccccc4)c(Cl)c3)C2)N1` [Example 119, 2-((2-chlorobiphenyl-4-yl)carbonyl)-2,5-diazaspiro[3.4]octan-6-one], the inhibition at 10 µM stood at 90%.

For `O=C1CCC2(CN(C(=O)c3ccc(-c4ccccc4)s3)C2)N1` [Example 126, 2-((5-phenyl-2-thienyl)carbonyl)-2,5-diazaspiro[3.4]octan-6-one], the inhibition at 10 µM is 85%.

For the compound `Cc1cc(-c2ccccc2)sc1C(=O)N1CC2(CCC(=O)N2)C1` [Example 129, 2-((3-methyl-5-phenyl-2-thienyl)carbonyl)-2,5-diazaspiro[3.4]octan-6-one], the inhibition at 10 µM was 89%.

On to `O=C1CCC2(CN(C(=O)c3ccc(-c4cccc(C(F)(F)F)c4)c(C(F)(F)F)c3)C2)N1` [Example 131, 2-((2,3′-bis(trifluoromethyl)biphenyl-4-yl)carbonyl)-2,5-diazaspiro[3.4]octan-6-one], for which the inhibition at 10 µM turned out to be 99%.

For `O=C1CCC2(CN(C(=O)c3ccc(-c4cccc(C(F)(F)F)c4)c(OC(F)(F)F)c3)C2)N1` [Example 132, 2-((2-(trifluoromethoxy)-3′-(trifluoromethyl)biphenyl-4-yl)carbonyl)-2,5-diazaspiro[3.4]octan-6-one], the inhibition at 10 µM is 99%.

For the compound `O=C1CCC2(CN(C(=O)c3sc4ccccc4c3Cl)C2)N1` [Example 134, 2-((3-chloro-1-benzothiophen-2-yl)carbonyl)-2,5-diazaspiro[3.4]octan-6-one], the inhibition at 10 µM came to 98%.

For the compound `COc1ccc2c(Cl)c(C(=O)N3CC4(CCC(=O)N4)C3)sc2c1` [Example 139, 2-((3-chloro-6-methoxy-1-benzothiophen-2-yl)carbonyl)-2,5-diazaspiro[3.4]octan-6-one], the inhibition at 10 µM came out at 99%.

In the case of `O=C1CCC2(CN(C(=O)c3sc4cc(F)ccc4c3Cl)C2)N1` [Example 140, 2-((3-chloro-6-fluoro-1-benzothiophen-2-yl)carbonyl)-2,5-diazaspiro[3.4]octan-6-one], the inhibition at 10 µM turned out to be 99%.

As to `Cc1c(C(=O)N2CC3(CCC(=O)N3)C2)sc2ccccc12` [Example 141, 2-((3-methyl-1-benzothiophen-2-yl)carbonyl)-2,5-diazaspiro[3.4]octan-6-one], the inhibition at 10 µM was determined as 92%.

`Cc1c(C(=O)N2CC3(CCC(=O)N3)C2)sc2cccc(F)c12` [Example 142, 2-((4-fluoro-3-methyl-1-benzothiophen-2-yl)carbonyl)-2,5-diazaspiro[3.4]octan-6-one]: the inhibition at 10 µM is 96%.

Regarding `O=C1CCC2(CN(C(=O)c3sc4ccc(Cl)cc4c3-c3ccccc3)C2)N1` [Example 143, 2-((5-chloro-3-phenyl-1-benzothiophen-2-yl)carbonyl)-2,5-diazaspiro[3.4]octan-6-one], the inhibition at 10 µM stood at 100%.

`O=C1CCC2(CN(C(=O)c3cc4ccc(OCc5ccc(Cl)cc5Cl)cc4s3)C2)N1` [Example 145, 2-((6-((2,4-dichlorobenzyl)oxy)-1-benzothiophen-2-yl)carbonyl)-2,5-diazaspiro[3.4]octan-6-one]: the inhibition at 10 µM is 87%.

With `O=C1CCC2(CN(C(=O)c3cc4cccc(Br)c4s3)C2)N1` [Example 146, 2-((7-bromo-1-benzothiophen-2-yl)carbonyl)-2,5-diazaspiro[3.4]octan-6-one], the inhibition at 10 µM came out at 90%.
